# Measured values reported in patent US9326539B2, “Compositions comprising dietary fat complexers and methods for their use” (Soho Flordis International Pty. Ltd., priority 2002, dated 2016).
# Key:
# [1] = two additional volunteers, about 2 g α-cyclodextrin per meal: cholesterol, LDL, cholesterol/HDL, triglycerides; assay type: in vivo, human
# Method: α-cyclodextrin was also added to the diet of two additional volunteers. The α-cyclodextrin was added in a proportion such that each meal comprised about 2 g of α-cyclodextrin. Table 3 sets forth the effects of the α-cyclodextrin on reducing the levels of cholesterol, LDL, cholesterol/HDL ratio and serum triglycerides. It is of note that both of these volunteers, as well as the initial volunteer, had been and still were taking one of the statin pharmaceuticals for lowering their blood serum cholesterol. All three volunteers were taking different statins. In addition volunteer one was taking 3 g/d niacin which they reduced by 50% in the first two weeks of the study because of the unpleasant side effects of this medication.
# [2] = Wistar rat low fat/high fat diet feeding study: food and energy intake, body weight, body composition; assay type: in vivo, Wistar rats; conditions: 6 week study, α-cyclodextrin:fat 1:10 w/w in diet
# Description: To examine the effect of α-cyclodextrin on body weight gain and plasma lipid levels in animals fed high fat and low fat diets, we conducted a short-term feeding study using Wistar rats. Forty-two male Wistar rats, 10 weeks old, were obtained from Harlan-Sprague Dawley. Following a one-week adaptation while being fed the control low fat diet (LF), they were divided equally into two groups, one low-fat (LF) diet and the other high-fat (HF) diet. These two groups were further divided into two subgroups. Two groups were fed the LF or HF diet and served as controls for the other two test groups which were fed the LF or HF diet containing α-cyclodextrin, wherein the amount of α-cyclodextrin was such that the ratio of α-cyclodextrin to fat in the food was 1:10 w/w. […]
# If this were the case it would be difficult to imagine being able to feed enough of the α-cyclodextrin to an animal in order to complex sufficient triglycerides to make a significant difference in body weight as triglycerides and α-cyclodextrin have similar molecular weights. However, from the data disclosed herein wherein e.g., a diet comprising 4% α-cyclodextrin and 40% fat inhibits weight gain and reduces body fat mass, as the molecular weights are very similar, we have calculated that one α-cyclodextrin molecule can complex approximately nine molecules of triglyceride, the equivalent of 27 free fatty acids. […]
# [3] = target: T1, porcine pancreatic lipase (Sus scrofa, UniProt P00591); test: lipolytic activity of porcine pancreatic lipase on purified olive oil premixed with α-cyclodextrin; assay type: biochemical
# T1 sequence (P00591 1-450): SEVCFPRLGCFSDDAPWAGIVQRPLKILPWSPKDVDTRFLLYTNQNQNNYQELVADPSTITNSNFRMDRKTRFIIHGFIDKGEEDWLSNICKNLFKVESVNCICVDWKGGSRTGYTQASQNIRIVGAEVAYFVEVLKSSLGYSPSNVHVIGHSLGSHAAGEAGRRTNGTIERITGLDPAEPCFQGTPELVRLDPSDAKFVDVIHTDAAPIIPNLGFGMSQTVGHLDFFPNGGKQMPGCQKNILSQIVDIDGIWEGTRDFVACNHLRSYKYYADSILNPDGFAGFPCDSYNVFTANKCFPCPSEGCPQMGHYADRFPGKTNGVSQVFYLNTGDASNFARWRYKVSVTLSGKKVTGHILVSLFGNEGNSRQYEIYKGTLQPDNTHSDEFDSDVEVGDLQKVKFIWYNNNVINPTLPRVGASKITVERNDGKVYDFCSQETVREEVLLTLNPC
# Description: If this were the case it would be difficult to imagine being able to feed enough of the α-cyclodextrin to an animal in order to complex sufficient triglycerides to make a significant difference in body weight as triglycerides and α-cyclodextrin have similar molecular weights. However, from the data disclosed herein wherein e.g., a diet comprising 4% α-cyclodextrin and 40% fat inhibits weight gain and reduces body fat mass, as the molecular weights are very similar, we have calculated that one α-cyclodextrin molecule can complex approximately nine molecules of triglyceride, the equivalent of 27 free fatty acids. Thus we can convert this directly to I gram of α-cyclodextrin complexes approximately 9 grams of triglyceride. […] As these particles are formed in the midst of chyme, a very complex “soup”, the particles may be analogous to lipoprotein particles of the blood stream.
# [4] = cited from earlier work
# [5] = volunteers fed high fat breakfast: serum triglyceride levels; assay type: in vivo, human
# Method: To determine the effect of α-cyclodextrin on triglyceride levels, eight volunteers were fed on two consecutive days a two-egg cheese (54 g) omelet and a milkshake containing a total of 47 g of fat after an overnight fast. On the first day the meal also contained approximately 5 g of α-cyclodextrin. Blood samples (10 ml) from each volunteer taken via an in-dwelling venous catheter immediately prior the meal (zero-time) and at 1, 2 and 3 hours after the meal was consumed and were assayed for serum triglyceride levels. The zero-time sample were used as the baseline to calculate the percentage change in blood serum triglyceride levels of the human volunteers at one, two and three hours. FIG. 7 illustrates the data collected from the volunteers.
# FIG. 7 also contains data from three of the volunteers who had partaken in an earlier two-hour study with a smaller meal (denoted “*”).
# insulin and leptin = test: two additional volunteers: body weight, insulin and leptin levels (radioimmune assays); assay type: in vivo, human
# Description: Blood samples were taken from the two additional subjects in Example 3 at various timepoints and assayed for insulin levels and leptin levels by the method of Linco Research (St. Charles, Mo.) using human insulin and leptin radioimmune assays.
# [6] = volunteer one, 2.5 months, on statin and niacin
# [7] = volunteer two, 6 months, on statin
smiles,measurement,setting,value
OC[C@H]1O[C@@H]2O[C@H]3[C@H](O)[C@@H](O)[C@@H](O[C@H]4[C@H](O)[C@@H](O)[C@@H](O[C@H]5[C@H](O)[C@@H](O)[C@@H](O[C@H]6[C@H](O)[C@@H](O)[C@@H](O[C@H]7[C@H](O)[C@@H](O)[C@@H](O[C@H]1[C@H](O)[C@H]2O)O[C@@H]7CO)O[C@@H]6CO)O[C@@H]5CO)O[C@@H]4CO)O[C@@H]3CO [α-cyclodextrin],Cholesterol (change),[1]; [6],−18.5%
same,Cholesterol/HDL (change),[1]; [6],−16.1%
same,LDL (change),[1]; [6],−25.6%
same,TG (change),[1]; [6],−22.2%
same,Cholesterol (change),[1]; [7],−10.2%
same,Cholesterol/HDL (change),[1]; [7],−8.8%
same,LDL (change),[1]; [7],−15.0
same,TG (change),[1]; [7],−37.5%
same,rate of body weight gain,[2],gained weight at a slower rate relative to their respective control groups
same,lipolytic activity of porcine pancreatic lipase,[3],significantly reduced
same,weight gain of rats versus control diet,"[4]; JP 05-298849, diet with 16% a-cyclodextrin, or 1% linolenic acid, or 14% α-cyclodextrin and 2% linolenic acid",gain weight approximately the same as rats fed a control diet
same,body weight gain of rats versus control diets,"[4]; Kaewprasert et al. 2001, 5% α-cyclodextrin diet, cyclodextrin:fat about 1:1.4",not significantly different
same,weight gain of rats,"[4]; S60-149752, diet with 14% w/w α-cyclodextrin, or 14% w/w α-cyclodextrin and 0.5% w/w linolenic acid",little effect on weight gain
same,increase in serum triglyceride levels after meal,"[5]; eight volunteers, meal with 47 g fat and approximately 5 g α-cyclodextrin, 1, 2 and 3 hours, p<0.08",less
same,change in triglyceride levels after meal,"[5]; three volunteers, earlier two-hour study with smaller meal",less
same,Leptin,"insulin and leptin; Subject 1, 55 days on diet, day 0: 3.6",2.9 ng/mL
same,Insulin,"insulin and leptin; Subject 1, 55 days on diet, day 0: 14",13 uU/ml
same,Body weight,"insulin and leptin; Subject 1, 55 days on diet, day 0: 89.09",85.45 kg
same,Body weight,"insulin and leptin; Subject 1, 55 days on diet, day 0: 196",188 lb
same,Leptin,"insulin and leptin; Subject 1, 112 days on diet, day 0: 3.6",1.6 ng/mL
same,Insulin,"insulin and leptin; Subject 1, 112 days on diet, day 0: 14",8 uU/ml
same,Body weight,"insulin and leptin; Subject 1, 112 days on diet, day 0: 89.09",81.82 kg
same,Body weight,"insulin and leptin; Subject 1, 112 days on diet, day 0: 196",180 lb
same,Body weight % decrease,"insulin and leptin; Subject 1, day 0 to day 112",5.0%
same,Insulin % decrease,"insulin and leptin; Subject 1, day 0 to day 112",42.9%
same,Leptin % decrease,"insulin and leptin; Subject 1, day 0 to day 112",55.6%
same,Leptin,"insulin and leptin; Subject 2, 28 days on diet, day 0: 6.1",6.0 ng/mL
same,Insulin,"insulin and leptin; Subject 2, 28 days on diet, day 0: 26",28 uU/ml
same,Body weight,"insulin and leptin; Subject 2, 28 days on diet, day 0: 105.45",104.55 kg
same,Body weight,"insulin and leptin; Subject 2, 28 days on diet, day 0: 232",230 lb
same,Leptin,"insulin and leptin; Subject 2, 62 days on diet, day 0: 6.1",3.9 ng/mL
same,Insulin,"insulin and leptin; Subject 2, 62 days on diet, day 0: 26",16 uU/ml
same,Body weight,"insulin and leptin; Subject 2, 62 days on diet, day 0: 105.45",100.23 kg
same,Body weight,"insulin and leptin; Subject 2, 62 days on diet, day 0: 232",220.5 lb
same,Body weight % decrease,"insulin and leptin; Subject 2, day 0 to day 62",5.0%
same,Insulin % decrease,"insulin and leptin; Subject 2, day 0 to day 62",38.5%
same,Leptin % decrease,"insulin and leptin; Subject 2, day 0 to day 62",36%
